# PMC7345836, “Absorption and Tissue Distribution of Siphonaxanthin from Green Algae” (Marine Drugs, 2020)
# What was measured:
# [1] = test system: Caco-2 cells; assay: Uptake and metabolism of micellar siphonaxanthin by differentiated Caco-2 cells; format: in vitro ADME, human; conditions: Caco-2 cells incubated with 1 nmol/well siphonaxanthin solubilized micelles for 1, 3, 6 and 24 h
# Description: Caco-2 cells obtained from the RIKEN Gene Bank (Tsukuba, Japan) were cultured in Dulbecco’s Modified Eagle’s Medium (DMEM) containing 10% fetal bovine serum (FBS), 1% penicillin-streptomycin (PS), and 1% non-essential amino acids in a humidified atmosphere of 95% air and 5% CO2 at 37 °C. For differentiation, cells were seeded in 12-well plates at a density of 2.0 × 10^5 cells/well in 1 mL DMEM medium described above and allowed to differentiate until day 22 from seeding. The medium was regularly changed three times a week. Experiments were performed at day 22 post-seeding on 12-well plates.
# Siphonaxanthin solubilized in micelles was added to the medium for treatment, and micelle formation was performed as previously described. […] The concentration of micellar carotenoid was determined as 1.0 ± 0.05 μmol/L by HPLC before use in the following experiment.
# The cell monolayers on 12-well plates were rinsed with the serum-free medium and then incubated in 1 mL of medium containing micellar siphonaxanthin. […] The residue was dissolved in methanol and subjected to quantitative and qualitative analysis. […] The concentration of siphonaxanthin in the medium was also analyzed. An aliquot of the medium was mixed with 4-fold methanol and subjected to the above HPLC analysis for quantify. […]
# [2] = Tissue distribution and accumulation of siphonaxanthin and its metabolites in mice after 16-day dietary supplementation (HPLC); format: in vivo; conditions: ICR mice
# Description: (§1) All experimental animal protocols were approved by the Animal Experimentation Committee of Kyoto University, Japan, for the care and use of experimental animals (Approval No. 26–35). Male ICR mice (7 weeks of age) were purchased from Japan SLC, Inc. (Hamamatsu, Japan). All mice were housed individually and maintained on an alternating 12-h light/dark cycle at a temperature of 23 ± 1 °C and free access to drinking water and chow (Oriental Yeast Co., Ltd., Tokyo, Japan). After an acclimatization period of 1 week, the mice were randomly divided into control and siphonaxanthin groups (n = 4 per group). Mice in the control group were fed an AIN-93G diet. The siphonaxanthin mouse group was fed the AIN-93G diet with siphonaxanthin supplementation, 65.79 nmol/g of diet (0.004%). The total food intake and body weight were recorded daily. After dietary supplementation for 16 days, the mice were anesthetized with isoflurane. Blood was collected from the caudal vena cava. Plasma was prepared by centrifuging at 400 g for 15 min at 4 °C. The tissues were rapidly removed, weighed, and immediately frozen in liquid nitrogen, and stored at −80 °C until use.
# Carotenoids were then extracted from the plasma and tissues. Briefly, aliquots of tissue samples (0.2 g) were homogenized in a 9-fold volume of 0.9% NaCl saline with a homogenizer dispenser (T10 basic ULTRA-TURRAX, IKA). Plasma samples were diluted with a 3-fold volume of Milli-Q water. The resultant tissue homogenates (0.9 mL) or diluent plasma samples (0.9 mL) were mixed with 3 mL of dichloromethane/methanol (2:1, v/v) to extract carotenoids. The samples were extracted three times, and the dichloromethane layer was collected after centrifugation at 1690 g at 4 °C for 10 min. After evaporation under nitrogen, the residue was resuspended in 20 μL of dichloromethane and methanol (1:1, v/v) for HPLC analysis.
# HPLC analysis was performed using a Prominence LC system (Shimadzu, Kyoto, Japan) connected to a photodiode array detector (SPD-M20A, Shimadzu, Kyoto, Japan), followed by an ion trap-time of flight mass spectrometer (LCMS-IT-TOF, Shimadzu, Kyoto, Japan) equipped with an atmospheric pressure chemical ionization (APCI) source or electrospray ionization (ESI) source. Siphonaxanthin was separated on a TSK gel ODS-80Ts QA column (2.0 × 250 mm, 5 μm, Tosoh, Tokyo, Japan). The binary gradient mobile phase was methanol/water (83:17, v/v) containing 0.1% ammonium acetate as mobile phase A and ethyl acetate/methanol (30:70, v/v) containing 0.1% ammonium acetate as mobile phase B. The column was eluted at a flow rate of 0.2 mL/min using the following gradients: 0–30 min, 0% B; 30–45 min, 0–100% B; 45–60 min, 100% B; 60–65 min, 100–0% B; 65–70 min, 0% B. Siphonaxanthin was detected at 450 nm. The APCI source was heated at 200 °C, and the probe was maintained at 400 °C. Nitrogen was used as sheath gas at 2.0 L/min, and drying gas was used at 25 kPa. Mass spectra were recorded in the positive ion mode. For the ESI source, sheath gas was set at 1.5 L/min, and drying gas was used at 120 kPa. A spray voltage of 4.5 kV was used for positive ionization. The peak identities of siphonaxanthin and its possible metabolites were further confirmed from their characteristic UV-vis spectra and their positive ions. Siphonaxanthin was quantified from its peak area at 450 nm using an external standard calibration curve with purified siphonaxanthin. Due to the unavailability of standards, possible metabolites of siphonaxanthin were estimated from the siphonaxanthin standard curve.
# [3] = Body weight, food intake and tissue weight of ICR mice fed siphonaxanthin diet; format: in vivo
# Description: as §1
# [4] = siphonaxanthin diet vs control diet, 16 days
compound,measurement,setting,value
"CC1=C[C@H](O)CC(C)(C)[C@H]1/C=C/C(C)=C/C=C/C(C)=C/C=C/C=C(C)/C=C/C=C(\CO)C(=O)CC1=C(C)C[C@@H](O)CC1(C)C [Siphonaxanthin, 3,19,3’-Trihydroxy-7,8-dihydro-β,ε-caroten-8-one]",Cellular concentration of siphonaxanthin,[1],"rapidly and linearly increased until 3 h after incubation, and then gradually increased until 24 h"
same,Concentration of siphonaxanthin in the medium,[1],decreased with increasing incubation time
same,Concentration in brain,"[2]; Brain, 16-day diet with siphonaxanthin 65.79 nmol/g, mean ± SEM, n = 4, N.D., not detected",0.4 ± 0.3 pmol/g
same,% of the total carotenoids in brain,"[2]; Brain, 16-day siphonaxanthin diet",100%
same,Concentration in colon,"[2]; Colon, 16-day diet with siphonaxanthin 65.79 nmol/g, mean ± SEM, n = 4",198 ± 24.5 pmol/g
same,% of the total carotenoids in colon,"[2]; Colon, 16-day siphonaxanthin diet",82.5%
same,% of the total carotenoids in epididymal WAT,"[2]; Epididymal WAT, 16-day siphonaxanthin diet",14.6%
same,Concentration in epididymal WAT,"[2]; Epididymal white adipose tissue, 16-day diet with siphonaxanthin 65.79 nmol/g, mean ± SEM, n = 4, N.D., not detected",27.8 ± 14.3 pmol/g
same,Concentration in heart,"[2]; Heart, 16-day diet with siphonaxanthin 65.79 nmol/g, mean ± SEM, n = 4",67.1 ± 25.2 pmol/g
same,% of the total carotenoids in heart,"[2]; Heart, 16-day siphonaxanthin diet",52.2%
same,Concentration in BAT,"[2]; Interscapular brown adipose tissue, 16-day diet with siphonaxanthin 65.79 nmol/g, mean ± SEM, n = 4",30.5 ± 11.4 pmol/g
same,% of the total carotenoids in BAT,"[2]; Interscapular brown adipose tissue, 16-day siphonaxanthin diet",41.7%
same,Concentration in kidney,"[2]; Kidney, 16-day diet with siphonaxanthin 65.79 nmol/g, mean ± SEM, n = 4",38.2 ± 15.7 pmol/g
same,% of the total carotenoids in kidney,"[2]; Kidney, 16-day siphonaxanthin diet",84.1%
same,Concentration in liver,"[2]; Liver, 16-day diet with siphonaxanthin 65.79 nmol/g, mean ± SEM, n = 4",37.1 ± 14.4 pmol/g
same,% of the total carotenoids in liver,"[2]; Liver, 16-day siphonaxanthin diet",18.7%
same,Concentration in lung,"[2]; Lung, 16-day diet with siphonaxanthin 65.79 nmol/g, mean ± SEM, n = 4",22.9 ± 8.2 pmol/g
same,% of the total carotenoids in lung,"[2]; Lung, 16-day siphonaxanthin diet",38.8%
same,% of the total carotenoids in mesenteric WAT,"[2]; Mesenteric WAT, 16-day siphonaxanthin diet",24.5%
same,Concentration in mesenteric WAT,"[2]; Mesenteric white adipose tissue, 16-day diet with siphonaxanthin 65.79 nmol/g, mean ± SEM, n = 4",110 ± 50.8 pmol/g
same,Concentration in muscle,"[2]; Muscle, 16-day diet with siphonaxanthin 65.79 nmol/g, mean ± SEM, n = 4",14.2 ± 7.5 pmol/g
same,% of the total carotenoids in muscle,"[2]; Muscle, 16-day siphonaxanthin diet",52.6%
same,Concentration in pancreas,"[2]; Pancreas, 16-day diet with siphonaxanthin 65.79 nmol/g, mean ± SEM, n = 4",46.1 ± 12.5 pmol/g
same,% of the total carotenoids in pancreas,"[2]; Pancreas, 16-day siphonaxanthin diet",45.4%
same,% of the total carotenoids in perirenal WAT,"[2]; Perirenal WAT, 16-day siphonaxanthin diet",13.3%
same,Concentration in perirenal WAT,"[2]; Perirenal white adipose tissue, 16-day diet with siphonaxanthin 65.79 nmol/g, mean ± SEM, n = 4",22.1 ± 12.0 pmol/g
same,% of the total carotenoids in plasma,"[2]; Plasma, 16-day siphonaxanthin diet",5.5%
same,Concentration in small intestine,"[2]; Small intestine, 16-day diet with siphonaxanthin 65.79 nmol/g, mean ± SEM, n = 4",3428 ± 1389 pmol/g
same,% of the total carotenoids in small intestine,"[2]; Small intestine, 16-day siphonaxanthin diet",79.5%
same,Concentration in spleen,"[2]; Spleen, 16-day diet with siphonaxanthin 65.79 nmol/g, mean ± SEM, n = 4",20.6 ± 3.4 pmol/g
same,% of the total carotenoids in spleen,"[2]; Spleen, 16-day siphonaxanthin diet",45.7%
same,Concentration in stomach,"[2]; Stomach, 16-day diet with siphonaxanthin 65.79 nmol/g, mean ± SEM, n = 4, siphonaxanthin standard curve",2054 ± 636 pmol/g
same,% of the total carotenoids in stomach,"[2]; Stomach, 16-day siphonaxanthin diet",94.0%
same,Concentration in testis,"[2]; Testis, 16-day diet with siphonaxanthin 65.79 nmol/g, mean ± SEM, n = 4",25.0 ± 10.0 pmol/g
same,% of the total carotenoids in testis,"[2]; Testis, 16-day siphonaxanthin diet",84.3%
same,concentration at 16 days,"[2]; male, mouse, oral, 65.79 nmol/g of diet, Plasma, 16-day diet with siphonaxanthin 65.79 nmol/g, mean ± SEM, n = 4",18.3 ± 4 nM
same,Body weight,[3]; [4],not altered
same,Weight of the other tissues,[3]; [4],did not significantly decrease
same,Weight of the spleen,"[3]; siphonaxanthin diet vs control diet, 16 days, p < 0.05",significantly decreased
same,Food intake,"[3]; siphonaxanthin vs control group, 16-day experimental period",not altered
